Legend:
Experiment in all cases: relative viability (nuclei count vs DMSO), 5 days (fraction); higher = more cells survive
LC-2-ad = test system: LC-2-ad
Outline: (§1)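 Relative viability divides the nuclei count in treated wells by that in vehicle wells. Lung cancer cell lines were seeded in 1536-well plates, dosed by pin tool the next day, and fixed and stained after 5 days in one step with final 0.05% Triton X-100, 1% formaldehyde and 1 ug/ml Hoechst. Dosing was a single drug or a fixed anchor-drug dose plus five library-drug doses (not always all listed) in √10 steps, and values are medians of duplicate plates imaged at 4×.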

NCI-H2126 = test system: NCI-H2126
Outline: as §1

LCLC-103H = test system: LCLC-103H
Outline: as §1

NCI-H1793 = test system: NCI-H1793
Outline: as §1

NCI-H1648 = test system: NCI-H1648
Outline: as §1

NCI-H2023 = test system: NCI-H2023
Outline: as §1

NCI-H1395 = test system: NCI-H1395
Outline: as §1

SW 900 = test system: SW 900
Outline: as §1

NCI-H1651 = test system: NCI-H1651
Outline: as §1

EMC-BAC-2 = test system: EMC-BAC-2
Outline: as §1

PC-14 = test system: PC-14
Outline: as §1

H3255 = test system: H3255
Outline: as §1

RERF-LC-KJ = test system: RERF-LC-KJ
Outline: as §1

NCI-H2009 = test system: NCI-H2009
Outline: as §1

NCI-H661 = test system: NCI-H661
Outline: as §1

UMC-11 = test system: UMC-11
Outline: as §1

COR-L 105 = test system: COR-L 105
Outline: as §1

ABC-1 = test system: ABC-1
Outline: as §1

NCI-H596 = test system: NCI-H596
Outline: as §1

NCI-H1755 = test system: NCI-H1755
Outline: as §1

EKVX = test system: EKVX
Outline: as §1

CAL-12T = test system: CAL-12T
Outline: as §1

NCI-H2087 = test system: NCI-H2087
Outline: as §1

C=C1C(=O)O[C@@H](CCCCCCCC)[C@@H]1C(=O)O [C-75] + O=C(CCCCCCC(=O)Nc1ccccc1)NO [Vorinostat] (partner 1 µM)
relative viability (LC-2-ad; first compound 0.08 µM): 0.72 | relative viability (LC-2-ad; first compound 0.253 µM): 0.717 | relative viability (LC-2-ad; first compound 0.8 µM): 0.681 | relative viability (LC-2-ad; first compound 2.53 µM): 0.689 | relative viability (LC-2-ad; first compound 8 µM): 0.666 | relative viability (NCI-H2126; first compound 0.08 µM): 0.721 | relative viability (NCI-H2126; first compound 0.253 µM): 0.92 | relative viability (NCI-H2126; first compound 0.8 µM): 0.792 | relative viability (NCI-H2126; first compound 2.53 µM): 0.642 | relative viability (NCI-H2126; first compound 8 µM): 0.744 | relative viability (LCLC-103H; first compound 0.08 µM): 0.736 | relative viability (LCLC-103H; first compound 0.253 µM): 0.758 | relative viability (LCLC-103H; first compound 0.8 µM): 0.708 | relative viability (LCLC-103H; first compound 2.53 µM): 0.664 | relative viability (LCLC-103H; first compound 8 µM): 0.765 | relative viability (NCI-H1793; first compound 0.08 µM): 0.674 | relative viability (NCI-H1793; first compound 0.253 µM): 1.01 | relative viability (NCI-H1793; first compound 2.53 µM): 0.425 | relative viability (NCI-H1793; first compound 8 µM): 0.751 | relative viability (NCI-H1648; first compound 0.08 µM): 0.571 | relative viability (NCI-H1648; first compound 0.253 µM): 1.1 | relative viability (NCI-H1648; first compound 0.8 µM): 0.283 | relative viability (NCI-H1648; first compound 8 µM): 0.216 | relative viability (NCI-H2023; first compound 0.08 µM): 0.653 | relative viability (NCI-H2023; first compound 0.253 µM): 0.944 | relative viability (NCI-H2023; first compound 0.8 µM): 0.604 | relative viability (NCI-H2023; first compound 2.53 µM): 0.6 | relative viability (NCI-H2023; first compound 8 µM): 0.37 | relative viability (NCI-H1395; first compound 0.08 µM): 0.649 | relative viability (NCI-H1395; first compound 0.253 µM): 0.768 | relative viability (NCI-H1395; first compound 2.53 µM): 0.634 | relative viability (NCI-H1395; first compound 8 µM): 0.711 | relative viability (SW 900; first compound 0.08 µM): 0.669 | relative viability (SW 900; first compound 0.253 µM): 0.824 | relative viability (SW 900; first compound 0.8 µM): 0.47 | relative viability (SW 900; first compound 2.53 µM): 0.395 | relative viability (SW 900; first compound 8 µM): 0.49 | relative viability (NCI-H1651; first compound 0.08 µM): 0.55 | relative viability (NCI-H1651; first compound 0.253 µM): 0.58 | relative viability (NCI-H1651; first compound 0.8 µM): 0.525 | relative viability (NCI-H1651; first compound 2.53 µM): 0.522 | relative viability (NCI-H1651; first compound 8 µM): 0.509 | relative viability (EMC-BAC-2; first compound 0.08 µM): 0.462 | relative viability (EMC-BAC-2; first compound 0.253 µM): 0.407 | relative viability (EMC-BAC-2; first compound 0.8 µM): 0.276 | relative viability (EMC-BAC-2; first compound 2.53 µM): 0.355 | relative viability (EMC-BAC-2; first compound 8 µM): 0.378 | relative viability (PC-14; first compound 0.08 µM): 0.721 | relative viability (PC-14; first compound 0.253 µM): 0.741 | relative viability (PC-14; first compound 0.8 µM): 0.63 | relative viability (PC-14; first compound 2.53 µM): 0.61 | relative viability (PC-14; first compound 8 µM): 0.717 | relative viability (H3255; first compound 0.08 µM): 0.846 | relative viability (H3255; first compound 0.253 µM): 0.621 | relative viability (H3255; first compound 0.8 µM): 0.79 | relative viability (H3255; first compound 2.53 µM): 0.627 | relative viability (H3255; first compound 8 µM): 0.732 | relative viability (RERF-LC-KJ; first compound 0.08 µM): 0.713 | relative viability (RERF-LC-KJ; first compound 0.253 µM): 0.801 | relative viability (RERF-LC-KJ; first compound 0.8 µM): 0.687 | relative viability (RERF-LC-KJ; first compound 2.53 µM): 0.69 | relative viability (RERF-LC-KJ; first compound 8 µM): 0.71 | relative viability (NCI-H2009; first compound 0.08 µM): 0.764 | relative viability (NCI-H2009; first compound 0.253 µM): 0.668 | relative viability (NCI-H2009; first compound 0.8 µM): 0.469 | relative viability (NCI-H2009; first compound 2.53 µM): 0.783 | relative viability (NCI-H2009; first compound 8 µM): 0.715 | relative viability (NCI-H661; first compound 0.08 µM): 0.762 | relative viability (NCI-H661; first compound 0.253 µM): 0.828 | relative viability (NCI-H661; first compound 0.8 µM): 0.741 | relative viability (NCI-H661; first compound 2.53 µM): 0.657 | relative viability (NCI-H661; first compound 8 µM): 0.774 | relative viability (UMC-11; first compound 0.08 µM): 0.38 | relative viability (UMC-11; first compound 0.253 µM): 0.497 | relative viability (UMC-11; first compound 0.8 µM): 0.343 | relative viability (UMC-11; first compound 2.53 µM): 0.257 | relative viability (UMC-11; first compound 8 µM): 0.294 | relative viability (COR-L 105; first compound 0.08 µM): 0.906 | relative viability (COR-L 105; first compound 0.253 µM): 0.826 | relative viability (COR-L 105; first compound 0.8 µM): 0.895 | relative viability (COR-L 105; first compound 2.53 µM): 0.859 | relative viability (COR-L 105; first compound 8 µM): 0.813 | relative viability (ABC-1; first compound 0.08 µM): 1.32 | relative viability (ABC-1; first compound 0.253 µM): 1.18 | relative viability (ABC-1; first compound 0.8 µM): 0.547 | relative viability (ABC-1; first compound 2.53 µM): 0.805 | relative viability (ABC-1; first compound 8 µM): 0.649 | relative viability (NCI-H596; first compound 0.08 µM): 0.644 | relative viability (NCI-H596; first compound 0.253 µM): 0.642 | relative viability (NCI-H596; first compound 0.8 µM): 0.671 | relative viability (NCI-H596; first compound 2.53 µM): 0.516 | relative viability (NCI-H596; first compound 8 µM): 0.483 | relative viability (NCI-H1755; first compound 0.08 µM): 0.732 | relative viability (NCI-H1755; first compound 0.253 µM): 0.868 | relative viability (NCI-H1755; first compound 0.8 µM): 0.692 | relative viability (NCI-H1755; first compound 2.53 µM): 0.774 | relative viability (NCI-H1755; first compound 8 µM): 0.732 | relative viability (EKVX; first compound 0.08 µM): 0.725 | relative viability (EKVX; first compound 0.253 µM): 0.827 | relative viability (EKVX; first compound 0.8 µM): 0.654 | relative viability (EKVX; first compound 8 µM): 0.728 | relative viability (CAL-12T; first compound 0.08 µM): 0.721 | relative viability (CAL-12T; first compound 0.253 µM): 1.12 | relative viability (CAL-12T; first compound 0.8 µM): 0.918 | relative viability (CAL-12T; first compound 2.53 µM): 0.674 | relative viability (CAL-12T; first compound 8 µM): 0.89 | relative viability (NCI-H2087; first compound 0.08 µM): 0.683 | relative viability (NCI-H2087; first compound 0.253 µM): 0.586 | relative viability (NCI-H2087; first compound 0.8 µM): 0.666 | relative viability (NCI-H2087; first compound 2.53 µM): 0.635 | relative viability (NCI-H2087; first compound 8 µM): 0.541

Source: the supplement of paper PMC10307832
